Experimental data reported in patent publication US20020028851A1, “Guanylhydrazones and their use to treat inflammatory conditions” (priority 1994, published 2002).
Where two headings read alike, the source gives them in different places.

Columns and labels:
[1] = test system: RAW 264.7 cells; experiment: Whole cell inhibition assay for arginine uptake; type: cell-based, murine
[2] = test system: RAW 264.7 cells; experiment: Whole cell inhibition assay for arginine uptake; type: cell-based, murine; conditions: for arginine transport % suppression of induced peak: γIFN+LPS, 8 hours
Procedure: In the embodiment described in the working example herein, a test population of cells was cultured for about 3 hours so that the cells became firmly adherent. Various concentrations of the potential inhibitors were then added to parallel cultures. One hour later the macrophage stimulators, e.g. including, but not limited to LPS and γIFN, were added. Eighteen hours later the cells were washed in a warm balanced salt solution supplemented with glucose. Carrier-free radiolabelled arginine was added; after 5 minutes, active uptake of arginine was stopped by washing the cell three times with buffer, chilled to 0° C., containing 10 mM unlabeled arginine to displace any externally bound label. The contents of the washed cells are solubilized in 100 μl of formic acid and counted by standard techniques.
RAW 264.7 cells are plated in standard 96-well microculture plates at a concentration of 10^5/well and allowed to adhere for from 2 hours to overnight. The medium is then replaced with medium containing the compound to be tested. One hour later, the medium is supplemented so as to contain 25 U/ml γIFN and 0.1 μg/ml LPS and the cultures incubated a further. The cells are then rinsed twice in HEPES- buffered Krebs salt solution with 0.1% glucose. Carrier-free tetra-^3H-arginine is added to each well (2.5 μCi/well with specific activity of […]) and the active uptake of arginine is allowed to continue for a 5 minute period after which the cells are rapidly cooled to 0° C. by lavage with iced saline containing 10 mM unlabeled arginine to displace any externally bound label. The contents of the washed cells are solubilized in 100 Al of formic acid and counted by standard techniques. In subsequent experiments to determine the acitivity of the inhibitors, incubations were performed for 8 hours.
This section describes experiments that measure the concentration of Compound No. 14 needed to inhibit arginine uptake and NO output. The techniques employed were described in section 7.1 supra.

[3] = LD50; type: in vivo
[4] = Pharmacokinetics by HPLC of serum; type: in vivo, rats
Procedure: Male Sprague-Dawley rats (Harlan Sprague Dawley, Indianapolis, Ind., USA) were anesthetized with ketamine and the right carotid artery cannulated with polyethylene tubing (PE-50). […] At 0, 5, 15, 30, 60, 90, 120, 180, 240, 300, 360 minutes 400 μl of blood was removed, stored at 4° C. for 4 hr, and then centrifuged at 15,000 ×g for 10 min, and the serum layer collected. Sodium azide was added to 0.0l v/v to prevent microbial growth and pentamidine was added to 5 μg/ml. Twenty-five μl of the resulting sample was analyzed by the HPLC method described.
The HPLC method was applied towards estimating the pharmacokinetic parameters of Compound No. 14 in adult rats receiving a 10 mg/kg dose as a single intra-arterial injection. In these experiments, the solid-phase extraction step was omitted due to the small volume of each sample, and the relatively large amount of Compound No. 14 which was recovered. Typical serum decay curves were obtained (FIG. 17, solid line), and the method of residuals, Gibaldi, M., & Perrier, D., 1982, PHARMACOKINETICS (Marcel Dekker, New York) pp. 433-444, was used to calculate the pharmacokinetic parameters (FIG. 17, dashed lines).

[5] = test system: TNF; experiment: Serum TNF levels after parenteral LPS; type: in vivo, rats; conditions: i.p. 2.0 hours prior to LPS; measured 2-3 hours after LPS
Procedure: Qualitatively similar data has been obtained by measurement of the serum TNF levels in rats stimulated to produce TNF by parenteral LPS administration. Rats were given Compound No. 14, i.p., 2.0 hours prior to LPS stimulation. The serum levels of TNF were measured at between 2 and 3 hours after LPS stimulation.

[6] = test system: BALB/c mice; experiment: LPS-induced lethality (endotoxic shock); type: in vivo
Procedure: Experiments were undertaken to evaluate the effects of Compound No. 14 in preventing the lethal toxicity of lipopolysaccharide (LPS). LPS was administered to induce 50% lethality within 72 hr in BALB/c mice (FIG. 10). BALB/c mice (19-21 g) were given LPS (E. coli 0111:B4; Sigma) in a dose of 13.75 mg/Kg by intraperitoneal injection (0.2 ml/mouse). Stock LPS solutions (10 mg/ml) were sonicated initially for 20 min, diluted in LPS-free water (1.375 mg/ml), then sonicated again for 10 min immediately prior to injection. Compound No. 14 (1 mg/Kg, i.p.) was administered 1.5 hr before LPS. Compound No. 14 injectate was free of LPS as measured by quantitative chromogenic Limulus amebocyte lysate test (BioWhittaker, Walkersville, Md.). Data points are from two groups consisting of 10 mice per group.
Data were subjected to statistical analysis using the z test for independent proportions. The difference bewteen control and Compound No. 14 is significant (one-tailed p value<0.05; z=1.95).

[7] = test system: CHO-TNF tumor; experiment: CHO-TNF tumor growth in nude mice; type: in vivo; conditions: 0.4 mg/Kg i.p. once daily, two weeks
Procedure: This section describes in detail the methods and results of an animal model of tumor growth to determine the ability of the compounds of the invention to inhibit tumor growth, and cause regression of tumors. Cells are plated in standard tissue culture flasks in DMEM supplemented with fetal calf serum (10%). Chinese hamster ovary (CHO) cells stably transfected with a mammalian expression vector constitutively secrete human TNF (CHO-TNF). The experiments with the CHO-TNF tumor were performed as follows: on the day of injection into nude mice, cells are harvested and injected intramuscularly (10-15×10^6 cells per animal) into the hindlimb of nu/nu nude mice (20 g body weight). Animals are housed and provided food and water ad libitum. Tumor growth is monitored, and when established tumors are present (during week six) the test compounds are administered daily (0.4 mg/Kg intraperitoneal, once daily). After two weeks the animals are euthanized, the tumor weighed, and measured with a caliper. The CHO-TNF tumor also metastasizes to the skin of these animals; the number of metastases is scored.

[8] = rats, 10 mg/kg single intra-arterial injection, n=3

For `CC(=NNC(=N)N)c1cc(NC(=O)CCCCCCCCC(=O)Nc2cc(C(C)=NNC(=N)N)cc(C(C)=NNC(=N)N)c2)cc(C(C)=NNC(=N)N)c1.Cl.Cl.Cl.Cl` [Compound 14, N,N′-bis(3,5-diacetyl-phenyl)decanediamide tetrakis(amidinohydrazone) tetrahydrochloride], the IC50 ([1]; stimulated 8 hours previously, then exposed 10 minutes in arginine-free buffer, mean±std. err., n=3, read-out: I.C.50 for arginine uptake) was 60 ± 15 µM, the “sensitivity of arginine uptake of unstimulated cells” value ([1]; unstimulated RAW 264.7) was “insensitive” and the “arginine transport % suppression of induced peak” value (“arginine transport % suppression” below) ([2]; dose 2 μM) was 9%. The “arginine transport % suppression” value ([2]; dose 10 μM) was 19%, the “arginine transport % suppression” value ([2]; dose 50 μM) was 86% and the “arginine transport % suppression” value ([2]; dose 200 μM) was 100%. For the same compound, the IC50 ([2]; exposed prior to stimulation, uptake measured at 8 hours, read-out: I.C.50 for arginine uptake) was 7.5 µM, the LD50 ([3]; given intraperitoneally) was 50 mg/kg and the LD50 ([3]; given orally) was “exceeds 1 g/kg”. For the same compound, the absorption and bioavailability ([4]; intraperitoneal or oral dosing routes (data not shown)) was “not rapidly absorbed, and may have a low bioavailability”, the “distribution half-life (t½α)” value [4, 8] was 2.41 ± 0.69 min and the “distribution rate constant (α)” value [4, 8] was 0.31 ± 0.09 min⁻¹. For the same compound, the “elimination half-life (t½β)” value [4, 8] was 5.02 ± 0.00 h, the “elimination rate constant (β)” value [4, 8] was 0.0023 ± 0.0000 min⁻¹ and the “total clearance (CL)” value [4, 8] was 5.62 ± 0.47 mL/min. The “volume of distribution (Vd)” value [4, 8] was 2.45 ± 0.21 L, the peak plasma levels ([4]; single doses of 0.4-1.0 mg/kg, from pharmacokinetic constants and FIG. 17) was over 0.5 µM and the “serum TNF level vs untreated controls” value [5] was “about half the level of serum TNF”. For the same compound, the “Diarrhea after LPS” value ([6]; 1 mg/Kg i.p. 1.5 hr before LPS) was “not suppressed”, the “visible signs of LPS toxicity” value ([6]; 1 mg/Kg i.p. 1.5 hr before LPS) was “markedly suppressed” and the LPS-induced lethality ([6]; 1 mg/Kg i.p. 1.5 hr before LPS 13.75 mg/Kg i.p., 72 hr, p<0.05) was “reduced lethality”. For the same compound, the “gross signs of systemic toxicity” value ([6]; animals receiving compound alone, 1 mg/Kg i.p.) was “no gross signs of systemic toxicity”, the “# of METASTASES (skin)” value [7] was “not present” and the “reduction in tumor size (animals responding)” value [7] was “reduction in tumor size in four out of five animals”. For the same compound, the “# of METASTASES (skin)” value ([7]; listed as No. 14) was 0, the “TUMOR DIMENSION” value ([7]; n = 4) was 207.99 ± 119.90 mm^2 and the “TUMOR WEIGHT” value ([7]; n = 4) was 1.628 ± 1.07 g.
